Laboratory results: the NIST ThermoML archive (doi:10.1021/acs.jced.5b00760)

Conditions: Liquid, Closed cell (Static) method

c1ccsc1 [thiophene]
Conditions	vapor or sublimation pressure [kPa]
303.15 K	13.29
308.15 K	16.61
313.15 K	20.59
318.15 K	25.31
323.15 K	30.87
328.15 K	37.4
333.15 K	44.98

O [water]
Conditions	vapor or sublimation pressure [kPa]
322.13 K	11.12
329.07 K	16.75
337.68 K	24.18
341.81 K	29.68
347.45 K	37.91
350.9 K	43.56
355.11 K	51.68
358.38 K	58.49

Cc1ccccc1 [toluene]
Conditions	vapor or sublimation pressure [kPa]
323.16 K	12.29
325.16 K	13.37
327.15 K	14.53
329.15 K	15.77
332.15 K	17.8
334.25 K	19.35
337.65 K	22.08
339.65 K	23.83
342.3 K	26.32
342.45 K	26.47

c1ccccc1 [benzene]
Conditions	vapor or sublimation pressure [kPa]
303.15 K	15.63
313.15 K	24.45
323.15 K	36.6
333.15 K	53.12
343.15 K	74.82
